# In patent publication US20220184071A1, “GEPOTIDACIN FOR USE IN THE TREATMENT OF BACTERIAL URINARY TRACT INFECTIONS” (GlaxoSmithKline Intellectual Property Development Limited, priority 2019, published 2022):
# Values joined by “and” are separate entries in the source; they are usually repeats but may differ in a detail not shown here. Equal values may be shown once. Read-outs that look alike come from different tables or passages of the source.
# Columns and labels:
# Clostridium bifermentans = experiment: MIC by CLSI agar dilution, Example 6 second study; assay type: cell-based; conditions: Paraclostridium bifermentans; 1 isolate
# Description: (§1) A second study tested gepotidacin by CLSI agar dilution against gram-positive and gram-negative anaerobic bacterial isolates from the GlaxoSmithKline Upper Providence culture collection. Amoxicillin, azithromycin, levofloxacin, and cefuroxime were included as comparators.
# Fusobacterium spp. = experiment: MIC by CLSI agar dilution, Example 6 second study; assay type: cell-based; conditions: 3 isolates
# Description: as §1
# Peptostreptococcus spp. = experiment: MIC by CLSI agar dilution, Example 6 second study; assay type: cell-based; conditions: 4 isolates
# Description: as §1
# Prevotella spp. = experiment: MIC by CLSI agar dilution, Example 6 second study; assay type: cell-based; conditions: 1 isolate
# Description: as §1
# qualifying uropathogens = experiment: Phase IIa baseline uropathogen susceptibility testing (CLSI broth microdilution); assay type: cell-based; conditions: 8 qualifying baseline uropathogens
# Description: (§2) This phase IIa single center study evaluated the safety, tolerability, pharmacokinetics, and efficacy of oral gepotidacin 1500 mg BID for 5 days in female subjects with acute cystitis. Clean catch mid-stream urine specimens were obtained for quantitative culture by standard methods. Urine samples were taken from all participants pre-treatment (baseline) and at all post-baseline visits. All urine samples were sent to a central laboratory (PPD Global Clinical Laboratories, Highland Heights, Ky., USA) for Gram stain, quantitative culture, pathogen identification and susceptibility testing. See FIG. 1 for participant disposition and study outline.
# (§3) Susceptibility testing by CLSI broth microdilution and gradient diffusion (fosfomycin only) was conducted (CLSI, 2015, Methods for dilution antimicrobial susceptibility tests for bacteria that grow aerobically; approved standard-tenth edition; and CLSI, 2018. Performance Standards for Antimicrobial Susceptibility Testing; Twenty-seventh Informational Supplement M100-S28). Inclusion in the microbiological intent-to-treat population (micro-ITT), required growth of a qualifying baseline uropathogen (≥10^5 CFU/mL). See FIG. 2 for the baseline algorithm.
# S. saprophyticus = experiment: as above; assay type: cell-based; conditions: Staphylococcus saprophyticus; Participant 8; read-out: GEP MIC
# Description: as §2, §3
# Shigella boydii = experiment: MIC by CLSI agar dilution, Example 1 Method 2; assay type: cell-based; conditions: n=3
# Description: (§4) Antimicrobial activity was determined in a second study by […] using the CLSI recommended procedure in serial two-fold dilutions and the minimum inhibitory concentration (MIC) was determined as the lowest concentration of the compound that inhibited visible growth.
# (§5) MICs were determined according to CLSI agar dilution guidelines.
# Shigella sonnei = experiment: MIC by CLSI agar dilution, Example 1 Method 2; assay type: cell-based; conditions: n=64
# Description: as §4, §5
# [1] = tested on: Klebsiella oxytoca, Klebsiella variicola, Proteus hauseri and Proteus peneri; experiment: MIC by CLSI agar dilution, Example 1 Method 2; assay type: cell-based; conditions: in each case against at least one isolate
# Description: as §4, §5
# Shigella flexneri = experiment: MIC by CLSI agar dilution, Example 1 Method 2; assay type: cell-based; conditions: n=24
# Description: as §4, §5
# Shigella = experiment: MIC by CLSI agar dilution, Example 1 Method 2; assay type: cell-based
# Description: as §4, §5
# [2] = tested on: Enterobacter (Enterobacter aerogenes, Enterobacter cloacae complex); experiment: MIC by CLSI agar dilution, Example 1 Method 2; assay type: cell-based; conditions: n = 55
# Description: as §4, §5
# [3] = tested on: Klebsiella (Klebsiella oxytoca, Klebsiella variicola, Klebsiella pneumoniae); experiment: MIC by CLSI agar dilution, Example 1 Method 2; assay type: cell-based; conditions: n = 55
# Description: as §4, §5
# [4] = Plasma and urine pharmacokinetics, phase IIa study in women with acute uUTI; assay type: in vivo, human; conditions: for Cmax: read-out: Plasma Cmax, Geometric Mean (% CVb); for AUC: po, uUTI patients, read-out: urine AUC[0-tau]
# Description: Bronchoalveolar lavage samples were collected to determine gepotidacin exposures in ELF and AM following a single 1000 mg IV infusion over 2 hours to healthy subjects. Saliva exposure was assessed in healthy volunteers following 1500 mg oral single dose. Gepotidacin exposures in urine was assessed in women with acute uUTI following 1500 mg BID oral doses for 5 days.
# as §2
# Serial blood and urine PK sampling were performed for the first dose of study treatment on Day 1 and for the time-matched dose on Day 4. Participants took all doses of gepotidacin with food and remained in the clinic to complete a total of 10 doses. Participants were instructed to return for the TOC (Day 10 to 13) and Follow-up (Day 28±3) Visits.
# For pharmacokinetic assessments, serial blood and urine samples for the assessment of gepotidacin PK concentrations were collected out to 12 hours post dose (T) following the morning dose on Days 1 and 4. CT (trough) concentrations were collected on Days 1-5. PK concentrations of gepotidacin in plasma and urine were measured using a validated LC-MS/MS bio-analytical assay.
smiles,measurement,setting,value
"O=c1ccc2ncc(=O)n3c2n1C[C@H]3CN1CCC(NCc2cc3c(cn2)OCCC3)CC1 [gepotidacin, (2R)-2-({4-[(3,4-dihydro-2H-pyrano[2,3-c]pyridin-6-ylmethyl)amino]-1-piperidinyl}methyl)-1,2-dihydro-3H,8H-2a,5,8a-triazaacenaphthylene-3,8-dione]",MIC,Clostridium bifermentans,0.06 µg/mL
same,MIC,Fusobacterium spp.,0.12 to 1 µg/mL
same,MIC,Peptostreptococcus spp.,0.12 to 2 µg/mL
same,MIC,Prevotella spp.,4 µg/mL
same,Gepotidacin MICs ranged,qualifying uropathogens,0.06 to 4 µg/mL
same,MIC,S. saprophyticus,0.06 µg/mL
same,MIC,Shigella boydii,2 µg/mL
same,MIC90,Shigella sonnei,2 µg/mL
same,MIC,[1],≥ 4 µg/mL
same,MIC90,Shigella flexneri,2 µg/mL
same,% of the tested isolates inhibited at ≤2 mg/L,Shigella; 91 isolates,95.6%
same,% of the tested isolates inhibited at ≤8 mg/L,Shigella; 91 isolates,100%
same,MICs ranged,Shigella; 91 isolates,0.125 to 8 mg/L
same,MIC50,"Shigella; Shigella, n = 91",1 µg/mL
same,MIC90,"Shigella; Shigella, n = 91",2 µg/mL
same,Number of Isolates at Gepotidacin MIC 0.5 mg/L,Shigella; n = 91,18
same,Number of Isolates at Gepotidacin MIC 1 mg/L,Shigella; n = 91,36
same,Number of Isolates at Gepotidacin MIC 2 mg/L,Shigella; n = 91,19
same,Number of Isolates at Gepotidacin MIC 4 mg/L,Shigella; n = 91,3
same,Number of Isolates at Gepotidacin MIC 8 mg/L,Shigella; n = 91,1
same,Number of Isolates at Gepotidacin MIC ≤0.25 mg/L,Shigella; n = 91,14
same,Effect of levofloxacin non-susceptibility or QRDR substitutions in GyrA and ParC on activity,Shigella; where data was available,unaffected
same,MIC50,[2],16 µg/mL
same,MIC90,[2],32 µg/mL
same,Number of Isolates at Gepotidacin MIC 2 mg/L,[2],3
same,Number of Isolates at Gepotidacin MIC 4 mg/L,[2],12
same,Number of Isolates at Gepotidacin MIC 8 mg/L,[2],7
same,Number of Isolates at Gepotidacin MIC ≤0.25 mg/L,[2],1
same,Number of Isolates at Gepotidacin MIC ≥16 mg/L,[2],32
same,MIC50,[3],16 µg/mL
same,MIC90,[3],64 µg/mL
same,Number of Isolates at Gepotidacin MIC 1 mg/L,[3],1
same,Number of Isolates at Gepotidacin MIC 4 mg/L,[3],6
same,Number of Isolates at Gepotidacin MIC 8 mg/L,[3],14
same,Number of Isolates at Gepotidacin MIC ≥16 mg/L,[3],34
same,accumulation in plasma following BID dosing (based on AUC),[4]; 1500 mg BID oral,1.4 fold
same,dose excreted in urine over the 12-hour dosing interval,[4]; Day 1,Approximately 20%
same,"Plasma CT, Geometric Mean (% CVb)",[4]; Day 4,0.851 (41.1) [n = 21] μg/mL
same,"Urine CT, Geometric Mean (% CVb)",[4]; Day 4,327 (248.7) [n = 21] μg/mL
same,dose excreted in urine over the 12-hour dosing interval,[4]; Day 4,31%
same,Steady state attained by,[4]; based on trough plasma concentrations,≤ 3 days
same,concentration at 12 h,"[4]; female, human, in vivo, over the 12-hour dosing interval, 1500 mg BID oral, read-out: minimum / steady-state trough urine concentrations (remained above a MIC of)",> 4000 ng/mL
same,AUC(0-t),"[4]; female, human, plasma, oral, 1500 mg, Day 1, read-out: Plasma AUC(0-T), Geometric Mean (% CVb)",20.2 µg·h/mL
same,Cmax,"[4]; female, human, plasma, oral, 1500 mg, Day 1",5890 ng/mL
same,AUC(0-t),"[4]; female, human, plasma, oral, 1500 mg, Day 4, read-out: Plasma AUC(0-T), Geometric Mean (% CVb)",29.3 µg·h/mL
same,Cmax,"[4]; female, human, plasma, oral, 1500 mg, Day 4",8440 ng/mL
same,Tmax,"[4]; female, human, plasma, oral, 1500 mg, plasma, Day 1, read-out: median Tmax",1.5 h
same,Tmax,"[4]; female, human, plasma, oral, 1500 mg, plasma, Day 4, read-out: median Tmax",1.92 h
same,Tmax,"[4]; female, human, plasma, oral, 1500 mg, plasma, Days 1 and 4, read-out: median Tmax values",1.5 to 1.92 h
same,half-life,"[4]; female, human, plasma, oral, 1500 mg, read-out: effective elimination half-life (converted)",6.6 h
same,AUC(0-t),"[4]; female, human, urine, oral, 1500 mg, Day 1, read-out: Urine AUC(0-T), Geometric Mean (% CVb)",3740 µg·h/mL
same,AUC(0-t),"[4]; female, human, urine, oral, 1500 mg, Day 4, read-out: Urine AUC(0-T), Geometric Mean (% CVb)",5970 µg·h/mL
same,AUC(0-t),"[4]; female, human, urine, oral, 1500 mg, steady state, Day 4, read-out: Urinary AUC(0-24)",11900 µg·h/mL
same,Kp,"[4]; female, human, urine, oral, 1500 mg, read-out: Steady-state urine exposures (AUC[0-24]) exceeded free plasma exposures by",~300
same,AUC,"[4]; female, human, urine, 1500 mg, Day 1, 1500 mg BID oral",3740 µg·h/mL
same,AUC,"[4]; female, human, urine, 1500 mg, Day 4, 1500 mg BID oral",5970 µg·h/mL
same,Urine Ctau,"[4]; from Day 3 onwards, 1500 mg BID oral",322 to 352 µg/mL
same,renal excretion,[4]; healthy subjects (comparison),7.5 % of dose
same,free plasma AUC(0-24),"[4]; steady state, Day 4",39.4 µg·h/mL and 39.3 µg·h/mL
same,renal excretion,[4]; uUTI participants,20 % of dose
